Measured values: ChEMBL document CHEMBL3286315, “Retinoic acid receptor agonist activity of naturally occurring diterpenes” (Bioorg Med Chem, 2014)
Calls of active or inactive are those of the source. No cut-off for these calls is given here.

Tests used:
Type in all cases: cell-based
[1] = biological target: T1, Peroxisome proliferator-activated receptor delta (Homo sapiens) (UniProt Q03181); assay: Agonist activity at PPARdelta (unknown origin) expressed in HEK293 cells assessed as transcriptional activation at 1 to 25 uM after 40 hrs by luciferase reporter gene assay
T1 sequence (whole entry): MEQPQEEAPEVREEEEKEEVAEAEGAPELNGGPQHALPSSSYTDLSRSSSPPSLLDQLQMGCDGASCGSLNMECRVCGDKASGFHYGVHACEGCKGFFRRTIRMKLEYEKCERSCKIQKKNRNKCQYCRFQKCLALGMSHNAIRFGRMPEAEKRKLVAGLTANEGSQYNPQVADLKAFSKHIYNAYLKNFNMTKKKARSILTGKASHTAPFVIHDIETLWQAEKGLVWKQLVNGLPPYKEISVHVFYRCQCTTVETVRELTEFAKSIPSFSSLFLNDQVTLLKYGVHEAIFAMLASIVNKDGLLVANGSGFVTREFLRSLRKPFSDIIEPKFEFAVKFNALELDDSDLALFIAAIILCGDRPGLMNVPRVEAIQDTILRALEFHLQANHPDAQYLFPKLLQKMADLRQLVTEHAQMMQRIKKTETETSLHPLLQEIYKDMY

[2] = biological target: T2, Retinoic acid receptor (Homo sapiens) (UniProt P13631+P10826+P10276); assay: Induction of RAR-mediated differentiation of human HL60 cells at 1 uM after 4 days by NBT assay; conditions: HL-60
[3] = biological target: T3, Retinoic acid receptor alpha (Homo sapiens) (UniProt P10276); assay: Agonist activity at human RARalpha expressed in HEK293 cells assessed as transcriptional activation at 0.1 to 50 uM after 40 hrs by luciferase reporter gene assay
T3 sequence (whole entry): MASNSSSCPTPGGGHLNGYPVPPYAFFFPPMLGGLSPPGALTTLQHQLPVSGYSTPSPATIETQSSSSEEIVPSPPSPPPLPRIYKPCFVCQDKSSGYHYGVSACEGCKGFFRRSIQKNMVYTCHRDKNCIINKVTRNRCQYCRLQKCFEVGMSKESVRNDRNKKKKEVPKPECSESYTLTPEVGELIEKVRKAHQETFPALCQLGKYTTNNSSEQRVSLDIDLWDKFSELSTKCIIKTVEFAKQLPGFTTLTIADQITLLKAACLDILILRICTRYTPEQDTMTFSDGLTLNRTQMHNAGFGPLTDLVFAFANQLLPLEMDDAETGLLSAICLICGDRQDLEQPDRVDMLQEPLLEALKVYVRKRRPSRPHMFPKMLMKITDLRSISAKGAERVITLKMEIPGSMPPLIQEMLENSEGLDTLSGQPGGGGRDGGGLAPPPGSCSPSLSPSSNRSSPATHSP

[4] = biological target: T2, Retinoic acid receptor (Homo sapiens); assay: Activation of RAR in human HepG2 cells assessed as increase in CAR mRNA level at 10 uM after 24 hrs by RT-PCR analysis
[5] = biological target: T4, Peroxisome proliferator-activated receptor gamma (Homo sapiens) (UniProt P37231); assay: Agonist activity at PPARgamma (unknown origin) expressed in HEK293 cells assessed as transcriptional activation at 1 to 25 uM after 40 hrs by luciferase reporter gene assay
T4 sequence (whole entry): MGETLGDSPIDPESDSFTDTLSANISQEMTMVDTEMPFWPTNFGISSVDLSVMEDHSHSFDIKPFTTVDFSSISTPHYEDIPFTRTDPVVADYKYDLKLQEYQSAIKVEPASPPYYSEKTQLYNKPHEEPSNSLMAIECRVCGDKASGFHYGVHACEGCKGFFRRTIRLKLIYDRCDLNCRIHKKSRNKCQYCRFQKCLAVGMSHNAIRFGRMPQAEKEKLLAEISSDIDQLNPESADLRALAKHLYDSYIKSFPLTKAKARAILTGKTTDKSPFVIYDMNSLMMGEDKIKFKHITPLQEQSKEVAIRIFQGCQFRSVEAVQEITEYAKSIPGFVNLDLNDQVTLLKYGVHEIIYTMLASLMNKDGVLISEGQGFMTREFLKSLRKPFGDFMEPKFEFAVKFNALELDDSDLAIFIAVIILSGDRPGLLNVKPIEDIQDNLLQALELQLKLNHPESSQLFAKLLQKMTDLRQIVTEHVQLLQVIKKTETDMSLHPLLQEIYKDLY

F9 [6] = assay: Activation of RAR in mouse F9 cells assessed as increase in CYP26A1 mRNA level at 10 uM after 48 hrs by RT-PCR analysis
[7] = biological target: T5, Oxysterols receptor LXR-alpha (Homo sapiens) (UniProt Q13133); assay: Agonist activity at LXR-alpha (unknown origin) expressed in HEK293 cells assessed as transcriptional activation at 1 to 25 uM after 40 hrs by luciferase reporter gene assay
T5 sequence (whole entry): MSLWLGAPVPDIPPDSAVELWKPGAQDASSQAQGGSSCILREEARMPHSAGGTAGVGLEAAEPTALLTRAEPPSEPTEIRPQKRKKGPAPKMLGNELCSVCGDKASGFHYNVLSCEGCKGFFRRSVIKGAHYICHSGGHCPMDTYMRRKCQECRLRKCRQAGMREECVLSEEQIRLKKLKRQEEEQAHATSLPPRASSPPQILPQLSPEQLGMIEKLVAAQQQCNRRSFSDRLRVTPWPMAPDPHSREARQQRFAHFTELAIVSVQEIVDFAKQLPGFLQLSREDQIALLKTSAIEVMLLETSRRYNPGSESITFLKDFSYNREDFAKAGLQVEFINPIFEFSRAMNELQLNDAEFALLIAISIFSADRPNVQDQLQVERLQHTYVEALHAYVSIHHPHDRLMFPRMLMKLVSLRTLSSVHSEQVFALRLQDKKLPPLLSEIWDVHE

F9 [8] = assay: Activation of RAR in mouse F9 cells assessed as increase in CYP26A1 mRNA level at 10 uM after 48 hrs by RT-PCR analysis in presence of RAR antagonist BMS493
F9 [9] = assay: Activation of RAR in mouse F9 cells assessed as increase in CYP26A1 mRNA level at 0.01 uM after 48 hrs by RT-PCR analysis
[10] = biological target: T3, Retinoic acid receptor alpha (Homo sapiens); assay: Agonist activity at human RARalpha expressed in HEK293 cells assessed as transcriptional activation at 1 to 100 uM after 40 hrs by luciferase reporter gene assay in presence of RAR antagonist LE135
[11] = biological target: T6, Retinoic acid receptor RXR-alpha (Homo sapiens) (UniProt P19793); assay: Agonist activity at human RXRalpha expressed in HEK293 cells assessed as transcriptional activation up to 100 uM after 40 hrs by luciferase reporter gene assay
T6 sequence (whole entry): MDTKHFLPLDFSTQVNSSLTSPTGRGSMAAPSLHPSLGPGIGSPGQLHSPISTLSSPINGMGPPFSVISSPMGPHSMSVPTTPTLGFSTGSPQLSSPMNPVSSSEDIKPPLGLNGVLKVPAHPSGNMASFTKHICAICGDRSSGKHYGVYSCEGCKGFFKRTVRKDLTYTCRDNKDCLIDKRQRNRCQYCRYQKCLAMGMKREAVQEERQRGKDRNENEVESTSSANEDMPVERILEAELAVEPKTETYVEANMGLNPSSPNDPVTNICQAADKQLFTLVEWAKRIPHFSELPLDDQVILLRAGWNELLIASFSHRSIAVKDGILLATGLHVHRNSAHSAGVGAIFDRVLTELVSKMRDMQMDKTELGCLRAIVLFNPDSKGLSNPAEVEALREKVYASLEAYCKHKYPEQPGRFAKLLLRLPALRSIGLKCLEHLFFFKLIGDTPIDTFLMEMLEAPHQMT

[12] = biological target: T3, Retinoic acid receptor alpha (Homo sapiens); assay: Agonist activity at human RARalpha expressed in HEK293 cells assessed as transcriptional activation at 1 to 100 uM after 40 hrs by luciferase reporter gene assay
[13] = biological target: T2, Retinoic acid receptor (Homo sapiens); assay: Induction of RAR-mediated differentiation of human HL60 cells at 1 to 25 uM after 4 days by NBT assay; conditions: HL-60

T2 sequence (P10826 whole entry, looked up, one chain of several): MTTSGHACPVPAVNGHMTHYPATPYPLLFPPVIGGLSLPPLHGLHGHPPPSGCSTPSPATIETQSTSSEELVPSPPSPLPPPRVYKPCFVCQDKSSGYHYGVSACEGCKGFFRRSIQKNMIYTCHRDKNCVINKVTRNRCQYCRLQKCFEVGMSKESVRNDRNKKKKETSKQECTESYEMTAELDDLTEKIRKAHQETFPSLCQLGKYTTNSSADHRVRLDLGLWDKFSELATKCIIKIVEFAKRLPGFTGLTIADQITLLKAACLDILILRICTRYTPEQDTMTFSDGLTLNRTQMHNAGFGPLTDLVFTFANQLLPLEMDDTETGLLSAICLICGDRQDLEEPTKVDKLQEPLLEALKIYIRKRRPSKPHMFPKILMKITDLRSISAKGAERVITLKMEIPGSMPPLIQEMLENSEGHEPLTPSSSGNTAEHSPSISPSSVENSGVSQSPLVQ
T2 sequence (P13631 whole entry, looked up, one chain of several): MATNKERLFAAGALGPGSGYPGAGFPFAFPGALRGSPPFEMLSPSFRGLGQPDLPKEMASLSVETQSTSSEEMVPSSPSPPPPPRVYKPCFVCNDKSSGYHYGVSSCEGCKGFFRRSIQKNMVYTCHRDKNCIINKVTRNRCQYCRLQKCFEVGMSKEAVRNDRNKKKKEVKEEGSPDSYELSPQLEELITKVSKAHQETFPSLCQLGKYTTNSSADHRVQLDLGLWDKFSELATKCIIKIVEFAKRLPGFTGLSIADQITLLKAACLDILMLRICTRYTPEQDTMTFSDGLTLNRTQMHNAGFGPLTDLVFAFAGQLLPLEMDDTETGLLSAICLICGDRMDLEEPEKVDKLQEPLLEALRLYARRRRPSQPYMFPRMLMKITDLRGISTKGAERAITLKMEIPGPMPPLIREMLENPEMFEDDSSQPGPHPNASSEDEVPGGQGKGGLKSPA

| SMILES | Activity [1] | Activity [2] | Activity [3] | Activity [4] | Activity [5] | Activity [7] | Activity [10] | Activity [11] | Activity [12] | Activity [13] | Activity (F9 [6]) | Activity (F9 [8]) | Activity (F9 [9]) |
| --- | --- | --- | --- | --- | --- | --- | --- | --- | --- | --- | --- | --- | --- |
| CC(C)C1=CC2=CC[C@@H]3[C@](C)(CCC[C@@]3(C)C(=O)O)[C@H]2CC1 | inactive | Active | Active | Active | Active | inactive |  |  |  |  | Active | inactive |  |
| CC1=C(/C=C/C(C)=C/C=C/C(C)=C/C(=O)O)C(C)(C)CCC1 |  | Active |  |  |  |  |  |  |  |  |  |  | Active |
| COC(=O)[C@H](C)NC(=O)[C@]1(C)CCC[C@]2(C)c3ccc(C(C)C)cc3CC[C@@H]12 |  |  | inactive |  |  |  |  |  |  |  |  |  |  |

More lines, main results first:

| Activity [1] | Activity [2] | Activity [3] | Activity [4] | Activity [5] | Activity [7] | Activity [10] | Activity [11] | Activity [12] | Activity [13] | SMILES | Activity (F9 [6]) | Activity (F9 [8]) | Activity (F9 [9]) |
| --- | --- | --- | --- | --- | --- | --- | --- | --- | --- | --- | --- | --- | --- |
|  |  | inactive |  |  |  |  |  |  |  | C=C1C[C@@]23CC[C@H]4[C@@](C)(CCC[C@@]4(C)C(=O)O)[C@@H]2CC[C@]1(O)C3 |  |  |  |
| inactive | Active | Active | Active | inactive | inactive |  |  |  |  | C=C[C@@]1(C)C=C2CC[C@@H]3[C@](C)(CCC[C@@]3(C)C(=O)O)[C@H]2CC1 | Active | inactive |  |
| inactive |  | Active | inactive | inactive | inactive | inactive | inactive | Active | Active | C=C[C@]1(C)C=C2CC[C@H]3[C@@](C)(CCC[C@@]3(C)C(=O)O)[C@@H]2CC1 | Active | inactive |  |
